According to ChEMBL document CHEMBL4680203, “Cladosins L-O, new hybrid polyketides from the endophytic fungus Cladosporium sphaerospermum WBS017” (Eur J Med Chem, 2020):

Assays:
L5178Y [1] = experiment: Cytotoxicity against mouse L5178Y cells assessed as cell viability at 10 ug/ml after 24 hrs by MTT assay relative to control; type: functional; conditions: read-out: Activity
Acinetobacter baumannii = experiment: […] activity against Acinetobacter baumannii BAA1605 assessed as reduction in microbial growth by CLSI based broth microdilution method; type: functional
Pseudomonas aeruginosa = experiment: Antibacterial activity against Pseudomonas aeruginosa 27853 assessed as reduction in microbial growth by CLSI based broth microdilution method; type: functional
Staphylococcus aureus [2] = experiment: Antibacterial activity against Staphylococcus aureus ATCC 29213 assessed as reduction in microbial growth by CLSI based broth microdilution method; type: functional
[3] = test system: Mycobacterium tuberculosis; experiment: Antitubercular activity against Mycobacterium tuberculosis H37Rv assessed as reduction in microbial growth by CLSI based broth microdilution method; type: functional
L5178Y [4] = experiment: Cytotoxicity against mouse L5178Y cells assessed as reduction in cell viability after 24 hrs by MTT assay; type: functional, cell-based
Ustilago maydis [5] = experiment: Antifungal activity against Ustilago maydis AB33 assessed as diameter of zone inhibition at 100 ug by Kirby-Bauer disk diffusion method; type: functional; conditions: Mycosarcoma maydis
Saccharomyces cerevisiae [6] = experiment: Antifungal activity against Saccharomyces cerevisiae ESM356-1 assessed as diameter of zone inhibition at 100 ug by Kirby-Bauer disk diffusion method; type: functional, organism-based; conditions: dose 100.0 µg
Saccharomyces cerevisiae [7] = experiment: Antifungal activity against Saccharomyces cerevisiae ESM356-1 assessed as diameter of zone inhibition at 50 ug by Kirby-Bauer disk diffusion method; type: functional; conditions: read-out: DIZ
Ustilago maydis [8] = experiment: Antifungal activity against Ustilago maydis AB33 assessed as diameter of zone inhibition at 50 ug by Kirby-Bauer disk diffusion method; type: functional; conditions: Mycosarcoma maydis, read-out: DIZ
Staphylococcus aureus [9] = experiment: Antibacterial activity against Staphylococcus aureus ATCC 700699 assessed as reduction in microbial growth by CLSI based broth microdilution method; type: functional
Enterococcus faecalis = experiment: […] activity against Enterococcus faecalis ATCC 29212 assessed as reduction in microbial growth by CLSI based broth microdilution method; type: functional

Molecule | viability at 10 µg/mL (L5178Y [1]) | MIC (Acinetobacter baumannii) | MIC (Pseudomonas aeruginosa) | MIC (Staphylococcus aureus [2]) | MIC [3] | other results
CC(C)=C1NC(=O)C(=C(N)/C=C/CC(C)O)C1=O (centres undefined) | 32.8% | > 100 µM | > 100 µM | > 100 µM | 100 µM | 
CC(C)=C1NC(=O)C(=C(N)CC(O)C[C@H](C)O)C1=O (some centres undefined) | 53.1% | > 100 µM | > 100 µM | > 100 µM | 100 µM | 
CC(C)=C1NC(=O)C2=C1O[C@@H](C[C@H](C)O)CC2=O |  | > 100 µM | > 100 µM | > 100 µM | > 100 µM | 
CC(C)=C1NC(=O)C(=C2C=CCC(C)O2)C1=O (centres undefined) | 0% | > 100 µM | > 100 µM | > 100 µM | > 100 µM | EC50 (L5178Y [4]): 3.7 µM; zone of inhibition at 100 µg/disc (Ustilago maydis [5]; read-out: DIZ): 9.7 mm
C/C=C1\NC(=O)[C@H](Cc2ccccc2)NC(=O)[C@H](C(C)C)NC(=O)[C@@H]([C@@H](C)CC)NC(=O)[C@@H](NC(=O)[C@H](NC(=O)[C@H](CCCN)NC(=O)[C@H]2CCCN2C(=O)[C@@H](NC(=O)C(NC(=O)[C@@H](NC(=O)[C@@H](NC(=O)CCCC(C)C)C(C)C)[C@@H](C)O)C(C)C)C(C)C)[C@@H](C)CC)[C@@H](C)OC(=O)[C@H](C(C)C)NC1=O (some centres undefined) | 0% |  |  |  |  | EC50 (L5178Y [4]): 4.3 µM
CC(C)=C1NC(=O)C2=C1O[C@H](C[C@H](C)O)CC2=O | 100% | > 100 µM | > 100 µM | > 100 µM | > 100 µM | 
NYSTATIN |  |  |  |  |  | inhibition zone (IZ) (Saccharomyces cerevisiae [6]): 7.8 mm; inhibition zone (IZ) (Ustilago maydis [5]; dose 100.0 µg): 32.7 mm
CC(C)=C1NC(=O)C(=C(N)CC(O)C[C@@H](C)O)C1=O (some centres undefined) | 82.2% | > 100 µM | > 100 µM | > 100 µM | 100 µM | 
CN[C@H]1C[C@@H](N)[C@H](O)[C@@H](O[C@@H]2O[C@H](CO)[C@H](O)[C@@H]3O[C@@]4(O[C@H]23)O[C@H]([C@H](N)CO)[C@H](O)[C@H](O)[C@H]4O)[C@@H]1O |  |  |  |  |  | zone of inhibition at 50 µg/disc (Saccharomyces cerevisiae [7]): 8.7 mm; zone of inhibition at 50 µg/disc (Ustilago maydis [8]): 8.3 mm
CC(C)=C1NC(=O)C(=Cc2ccc(O)cc2)C1=O (mixture of isomers) | 18.2% | > 100 µM | > 100 µM | 50 µM | > 100 µM | MIC (Staphylococcus aureus [9]): 25 µM; MIC (Enterococcus faecalis): > 100 µM
CC(C)=C1NC(=O)C(=C(N)CCCC(C)O)C1=O (mixture of isomers) | 50.9% | > 100 µM | > 100 µM | > 100 µM | 100 µM | 
